Experimental data taken from patent US20240368049A1, “ENHANCED PHYTOREMEDIATION FROM BIOAVAILABILITY OF PER- AND POLYFLUOROALKYL SUBSTANCES IN CONTAMINATED SOIL” (The Research Foundation for the State University of New York, priority 2023, published 2024).

Assays:
[1] = SPLP (EPA method 1312) leachability of PFAS in biosolids amended soil; format: physicochemical; conditions: for percentage of SPLP leachable PFAS in biosolids amended soil: without a sorbent, Day-80, pH 4.2
Experimental: PFAS in the freeze-dried timothy-grass shoots were extracted by MTBE-NaOH according to a previously developed method. Before extraction, each sample for extraction was spiked with 10 ng of 13C2-PFHxA as the surrogate for determining the extraction efficiency. EPA method 1312 (Synthetic Precipitation Leaching Procedure, SPLP) was performed on the biosolids amended soil after drying to determine the leachability of PFAS. Briefly, 20 mL of H2SO4/HNO3 reagent (60/40 wt/wt.) at pH=4.2 were added to the soil sample. The soil with the H2SO4/HNO3 reagent was then vortexed for 30s and shaken on an end over end mixer overnight. After centrifugation at 3500 g for 30 min, the supernatant was collected and subject to solid phase extraction (SPE) using HyperSep C18 cartridges (Thermo Scientific, Waltham, MA). The SPLP leachable PFAS on the C18 cartridges were eluted with 2 mL of methanol, followed by 2 mL of 0.1% NH40H amended methanol. The SPLP leachable PFAS in clean soil without biosolids amendment were analyzed as well. PFAS in the final plant extracts and SPLP leachates were quantified using a 1290 Infinity II LC system coupled with a 6470 Triple Quad Mass Spectrometer (LC-MS/MS, Agilent Technologies, Santa Clara, CA, USA).
FIG. 3 is a series of graphs 40 of percentages of leachable PFAS in biosolids-amended soil treated by different sorbents on Day-80 (n=3). Different letters represent significant differences among the treatments (p<0.05). […] Without a sorbent, almost 100% of leaching of PFHxA 42, PFHpA 44 and PFOA 46 was observed. Similarly to PFAS uptake by the shoots, a chain length effect was visible: the shorter the carbon chain of PFAS, the higher the leachability. […] Compared to PFAS concentrations in the shoots (FIG. 1), there was no positive correlation between acidic water leachable PFAS and the extent of shoot uptake for treatment with biochar at both doses and RemBind at the dose of 0.2%. Thus, results from SPLP at pH=4.2 for sites east of the Mississippi River may not be able to predict bioavailable PFAS to the studied grass. The SPLP is an established and widely adopted EPA method for investigating leaching of organic contaminants in soil. One should note that the acidic water used in the leaching procedure may actually decrease PFAS leaching due to the acidic nature of PFAAs. But since the focus here was to evaluate the effect of different sorbents toward stabilizing PFAS in soil amended by biosolids, the SPLP served our purpose well.

[2] = test system: timothy-grass (Phleum pratense); test: uptake of PFAS by timothy-grass shoots grown in biosolids-amended soil treated by a sorbent or SDS; format: in vivo
Text: The method uses the addition of a mobilizing reagent, at a predetermined dose as described herein, to amend the soil around a root system of one or more plants. The supplementing of the amended soil with a stabilizing reagent at a predetermined dose, as also defined below. In one embodiment, the preparation of biosolids amended soil uses a sandy loam soil used in this study (pH=7.56), which was collected from a local farm in Albany County, New York. The soil was passed through a 2-mm sieve before use. The contents of natural organic matter and total organic carbon of the sieved soil were 4.82±0.12% and 2.44±0.45%, respectively. The sieved soil was mixed with vermiculite in a 1:1 vol ratio for increasing water retention of the soil and improving soil aeration. Then, the processed soil for plant cultivation was distributed to 7-quart polypropylene containers (14.375″L×8.25″W×6″H). Each container had 1.3 kg of dry soil.
The biosolids after anaerobic digestion of sludge were collected from a nearby wastewater treatment plant close to University at Albany. The total solid and total organic carbon of the biosolids were 24.16±0.21% and 28.64±0.28%, respectively. […]
Timothy-grass seeds were purchased from OrOlam LLC (South Miami, FL). […] Around 1 g of the plant tissues from each treatment was used for chlorophyll extraction and quantification. […]

[3] = test system: timothy-grass (Phleum pratense); test: chlorophyll content of timothy-grass shoots; format: in vivo; conditions: mobilization treatment with SDS
Experimental: Timothy-grass seeds were purchased from OrOlam LLC (South Miami, FL). One gram of seeds was sown evenly in each tank containing the prepared biosolids amended soil. Enough water was then added to each tank to reach 100% of field capacity. The plants were cultivated in a greenhouse and watered every day. The timothy-grass started germinating on the 5th day after sowing. On Day-40 after seed germination, the above-ground shoots of the grass in each tank were cut and rinsed thoroughly using deionized water. Around 1 g of the plant tissues from each treatment was used for chlorophyll extraction and quantification. The remaining plant shoots were freeze-dried at −37° C. for 48 h and subject to PFAS extraction and analysis. The plants after cutting were kept under the same growth condition. On Day-80 after seed germination or day-40 after the first cut, the plant shoots were removed again and subject to chlorophyll and PFAS analysis. […]
On Day-40 and Day-80 after seed germination, 100 mg of fresh grass leaves were collected and used to quantify chlorophyll content. […] After 48 h, the chlorophyll concentration in the solvent was determined using a UV-Vis spectrophotometer (GENESYS 10S, Thermo Fisher Scientific, altham, MA, USA). The absorbance was read at 664 and 647 nm and used to calculate chlorophyll a and b and total chlorophyll content according to these equations: […]

Row | Structure (SMILES) | percentage of SPLP leachable PFAS in biosolids amended soil [1] [%] | effect on acidic water leachable PFAS in biosolids amended soil ([1]; SDS at a dose up to 100 mg/kg) | effect on uptake of PFAS by the shoots ([2]; SDS 100 mg/kg, Day-40, exceptions PFOA and PFOS) | effect on ΣPFAS uptake by the shoots ([2]; SDS, all three doses (10, 50, 100 mg/kg), Day-80) | effect on chlorophyll content in timothy-grass [3]
1 | O=C(O)C(F)(F)C(F)(F)C(F)(F)C(F)(F)C(F)(F)C(F)(F)F [PFHpA, perfluoroheptanoic acid] | ~100 |  |  |  | 
2 | O=C(O)C(F)(F)C(F)(F)C(F)(F)C(F)(F)C(F)(F)C(F)(F)C(F)(F)F [PFOA, perfluorooctanoic acid] | ~100 |  |  |  | 
3 | CCCCCCCCCCCCOS(=O)(=O)[O-].[Na+] [SDS, sodium dodecyl sulphate] |  | did not significantly increase | significantly higher uptake of PFAS | significantly higher PFAS uptake | did not change the chlorophyll content
4 | O=C(O)C(F)(F)C(F)(F)C(F)(F)C(F)(F)C(F)(F)F [PFHxA, perfluorohexanoic acid] | ~100 |  |  |  | 
